# Patent publication US11358940B2, “K-Ras modulators” (THE REGENTS OF THE UNIVERSITY OF CALIFORNIA, priority 2017, dated 2022)
# What was measured:
# [1] = biological target: T1, Kras4b H95C (1-169) mutant protein (GppNHp-loaded) (Homo sapiens, UniProt P01116, H95C); assay: Disulfide tethering screen, dose response; format: binding; details: FIG. 2
# T1 construct: we generated Kras4b H95C (1-169) mutant protein; made in house
# Text: Disulfide tethering is a site-directed fragment-based approach to drug-discovery, which allows the screening low-affinity disulfide containing fragments against a native or introduced cysteine residue of a target protein. Fragment binding is reversible, and can be tuned to favor detection of only the strongest bound fragments through the use of increasing concentrations of a reductant (typically β-mecaptoethanol). This binding is not purely driven by reactivity; it is influenced by protein/ligand interactions and is independent of pKa or surface exposure. Bound fragments are detected by mass spectrometry and provide a lead into the drug discovery process.
# To target H95 specifically, we generated Kras4b H95C (1-169) mutant protein, and used it (GppNHp-loaded), to search for compounds that could bind to active KRas in close proximity to H95. We performed a tethering screen of a disulfide containing fragment library at the University of California San Francisco.
# [2] = biological target: H95 site of KRas (Homo sapiens, UniProt P01116, H95C); assay: Thermal melting analysis; format: binding; details: FIG. 3
# [3] = system: KRAS4b G12D, KRAS4b G12V, HRas WT/P53-, and SUIT-2; assay: Cell proliferation experiments with analogues of FNL-0045; format: cell-based; details: FIG. 15B
# Description: (§1) Cell viability in the presence of compounds (discussed in examples above) was measured using CellTiter-Glo (Promega). Cells were plated in black-walled 384-well plates (Greiner, 781091) at densities in accordance with their doubling time (for MEFs typically 1,000 cells/well in 20 μl), using the Multidrop Combi Reagent Dispenser (Thermo). They were then incubated overnight at 37° C. in a humidified atmosphere of 5% CO2 prior to compound addition.
# Compound and dimethylsulfoxide (DMSO) addition to microplates was performed using the Access Laboratory Workstation (Labcyte) and Echo 555 (Labcyte) liquid handler. Source plates with compounds and DMSO were prepared and the Echo 555 was used to transfer 50 nL of compound, DMSO, or both to the appropriate wells. […] of complete culture medium was added to all wells of the microplate after compound addition. […]
# Cells were incubated with compounds for 72 h. […] Cellular ATP levels (an indicator of cell count) were determined with CellTiter-Glo (CTG, Promega G7573) luminescence assay, using an EnVision Plate Reader (PerkinElmer).
# Plates were harvested at two time points. […] After 72 h incubation, the compound treated plates were harvested using CTG reagent and luminescence read using the EnVision giving control growth (C) and compound treated well (T72) measurements. Growth inhibition was calculated by: […]
# [4] = system: HupT4 pancreas carcinoma cells; assay: Growth arrest in HupT4 cells; format: cell-based; details: 24 h
# Description: as §1
# Compound and dimethylsulfoxide (DMSO) addition to microplates was performed using the Access Laboratory Workstation (Labcyte) and Echo 555 (Labcyte) liquid handler. Source plates with compounds and DMSO were prepared and the Echo 555 was used to transfer 50 nL of compound, DMSO, or both to the appropriate wells. […] of complete culture medium was added to all wells of the microplate after compound addition. The highest final concentration in each assay was 100 μM or 50 μM with between seven to 12 dilutions. The final DMSO concentration in all wells was 0.2%.
# […] All conditions were done in triplicates and experiments performed at least thrice. Cellular ATP levels (an indicator of cell count) were determined with CellTiter-Glo (CTG, Promega G7573) luminescence assay, using an EnVision Plate Reader (PerkinElmer).
# Plates were harvested at two time points. […] Growth inhibition was calculated by: […]
# [5] = biological target: farnesylated and carboxymethylated KRas (FMe-KRas) (Homo sapiens, UniProt P01116); assay: MALDI-TOF analysis of labeling of fully processed KRas; format: binding
# [6] = biological target: T2, KRas H95C (1-169) (Homo sapiens, UniProt P01116, H95C); assay: MALDI-TOF analysis of KRas H95C reacted with compound; format: binding; details: reacted for 24 h
# T2 construct: we generated Kras4b H95C (1-169) mutant protein; made in house
# Text: Next, we reacted all three epoxides synthesized (structures depicted in FIG. 10A) with KRas H95C (1-169) to investigate reactivity at that site.
# Single enantiomers of FNL-0012, compounds […] and FNL-0044 (R), then corresponding single enantiomers of FNL-0030, compounds FNL-0043 (S) and FNL-0045 (R), were synthesized (FIG. 14A). These enantiomers were investigated using a MALDI-TOF MS screen using KRAS4b (1-169) H95C, and also cell-based assays.
# T1 sequence (P01116 1-169 isoform P01116-2 H95C): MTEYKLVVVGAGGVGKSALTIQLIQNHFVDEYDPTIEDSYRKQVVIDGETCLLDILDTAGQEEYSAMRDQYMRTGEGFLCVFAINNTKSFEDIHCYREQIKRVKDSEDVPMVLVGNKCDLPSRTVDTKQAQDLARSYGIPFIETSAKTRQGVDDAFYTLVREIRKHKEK
# Sequence of H95 site of KRas (P01116 1-188 isoform P01116-2 H95C): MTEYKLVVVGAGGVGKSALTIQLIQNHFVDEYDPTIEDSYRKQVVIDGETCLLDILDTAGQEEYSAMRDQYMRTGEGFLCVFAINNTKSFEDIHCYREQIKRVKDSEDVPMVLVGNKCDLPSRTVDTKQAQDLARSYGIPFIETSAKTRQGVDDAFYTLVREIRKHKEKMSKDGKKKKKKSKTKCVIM
# T2 sequence (P01116 1-169 isoform P01116-2 H95C): as the sequence (P01116 1-169 isoform P01116-2 H95C) above
# Sequence of farnesylated and carboxymethylated KRas (FMe-KRas) (P01116 2-185 isoform P01116-2 limits assumed): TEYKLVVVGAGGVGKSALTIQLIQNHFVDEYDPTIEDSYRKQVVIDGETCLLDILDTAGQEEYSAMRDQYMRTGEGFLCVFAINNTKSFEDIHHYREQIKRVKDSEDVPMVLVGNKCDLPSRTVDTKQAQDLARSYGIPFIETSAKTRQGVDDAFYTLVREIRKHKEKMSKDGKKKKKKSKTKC
Compound,binding at H95 site of KRas in dose response experiments [1],shift in Tm upon fragment binding [2],other results
CN(C)CCSSCCNC(=O)Cc1ccc(Cl)c(Cl)c1 [compound 917105],strong binders,significant shifts in Tm,–
Cn1nc(C(=O)NCc2cn(C[C@@H]3CO3)nn2)c2ccccc21 [FNL-0088],–,–,"proliferation assay, R enantiomer compared with S enantiomer FNL-0090 [3]: compared favorably"
O=C(Cc1ccc(Cl)c(Cl)c1)NCC1CO1 (stereo not shown) [FNL-0010],–,–,growth arrest / cell proliferation [4]: did not affect cell proliferation; covalent labeling of FMe-KRas [5]: did not label; covalent modification of C95 [6]: covalently labeled C95

# The next lines start with results.
binding at H95 site of KRas in dose response experiments [1],shift in Tm upon fragment binding [2],Compound,other results
strong binders,significant shifts in Tm,CN(C)CCSSCCn1cc(CNC(=O)c2n[nH]c3ccccc23)nn1 [compound 966854],–
strong binders,significant shifts in Tm,Cc1ccc(S(=O)(=O)c2cn(CCSSCCN(C)C)nn2)cc1 [compound 966844],–
